Results published in patent US7459449B2 (priority 2004, dated 2008).
Structures can show the parent of a compound that is named as a salt. Where two headings read alike, the source gives them in different places.

What was measured:
[1] = Tendency to form solvates (acetone); assay type: physicochemical; conditions: generally acetone as the solvent
Text: Additionally the inventive salts are not prone to forming solvates. Solvates with organic solvents such as acetone, dichloromethane, dioxane, etc., are inconvenient in pharmaceutical applications because of the toxicity of the solvent. […] A typical example of such a solvate salt is the acetone solvate of olanzapine succinate. The solvent may nevertheless be present in the wet cake of the crude material after isolation in solid state, but a solvent-free product should be obtained by ordinary means of drying. A solvent-free salt (i.e. less than 0.5%, preferably less than 0.1%, of the solvent present) is particularly preferred as the absence of the solvent is advantageous for pharmaceutical applications.

[2] = Stability of 1% aqueous solution against precipitation; conditions: for Is 1% solution stable from precipitation?: 1% aqueous solution, at least 12 to 24 hours (overnight)
Text: (§1) A failure was considered to be 1% or more of impurities being formed; i.e. if 1% or more formed, then the salt is reported as “No,” not stable, for the corresponding test.

[3] = Isolation of the olanzapine salt in solid form; assay type: physicochemical
[4] = Solid state stability (impurity formation on storage); assay type: physicochemical; conditions: short period of storage
Text: as §1

[5] = Water solubility test at 10 mg/ml; conditions: thermodynamic from solid
[6] = cited from earlier work
Stability against light = assay type: physicochemical
Hygroscopicity = assay type: physicochemical

Row | Compound | Is there low tendency to form solvates? [1] | Is 1% solution stable from precipitation? [2] | Readily isolatable in solid form? [3] | also measured
1 | Cc1cc2c(s1)Nc1ccccc1N=C2N1CCN(C)CC1.O=C(O)C=CC(=O)O.O=C(O)C=CC(=O)O [Dimaleate, reference compound] | No |  |  | 
2 | Cc1cc2c(s1)Nc1ccccc1N=C2N1CCN(C)CC1.Cc1cc2c(s1)Nc1ccccc1N=C2N1CCN(C)CC1.O=S(=O)(O)O [Hemisulfate, reference compound] | No |  |  | 
3 | CCS(=O)(=O)O.Cc1cc2c(s1)Nc1ccccc1N=C2N1CCN(C)CC1 [Monoesylate, Olanzapine Esylate] | Yes |  |  | 
4 | Olanzapine Hemifumarate | No | No | Yes | 
5 | Cc1cc2c(s1)Nc1ccccc1N=C2N1CCN(C)CC1.O=C(O)C(O)C(O)C(=O)O.O=C(O)C(O)C(O)C(=O)O [Di-L-tartrate, reference compound] | No |  |  | 
6 | olanzapine dimesylate [reference compound] |  |  | Yes** | solid state behaviour on storage [4]: become oily after a short period of storage
7 | Olanzapine Hemi-Succinate [Hemisuccinate] | No | No | Yes | 
8 | Tosylate [reference compound] |  |  | No | 
9 | Cc1cc2c(s1)Nc1ccccc1N=C2N1CCN(C)CC1.Cc1cc2c(s1)Nc1ccccc1N=C2N1CCN(C)CC1.O=C(O)CCCCC(=O)O [Hemiadipate, Olanzapine Hemi-Adipate] | Yes |  |  | 
10 | Cc1cc2c(s1)Nc1ccccc1N=C2N1CCN(C)CC1.O=S(=O)(O)O [Monosulfate, Olanzapine Hydrogensulfate] | No |  |  | 
11 | Olanzapine Besylate [Monobesylate] | Yes | No | Yes | 
12 | Cc1cc2c(s1)Nc1ccccc1N=C2N1CCN(C)CC1 [Monohydrochloride, Olanzapine Monohydrochloride] |  |  |  | solubility [5]: > 10000 µg/mL
13 | Mandelate [reference compound] |  |  | No | 
14 | Olanzapine Mono-Tartrate [Mono-L-tartrate] | No | Yes | Yes | 
15 | Olanzapine |  |  |  | water solubility (in words), background [6]: insoluble in water; solubility at pH 6.8 ([6]; pH 6.8, marketed free base): 0.02 mg/ml
16 | Cc1cc2c(s1)Nc1ccccc1N=C2N1CCN(C)CC1.O=C(O)CC(=O)O [Hydrogenmalonate, Olanzapine Hydrogenmalonate] | Yes |  |  | stability against the action of light (Stability against light): sufficiently stable against the action of light; hygroscopicity (Hygroscopicity): generally non-hygroscopic
17 | Cc1cc2c(s1)Nc1ccccc1N=C2N1CCN(C)CC1.O.O=C(O)c1cc2ccccc2c(Cc2c(O)c(C(=O)O)cc3ccccc23)c1O [Pamoate, olanzapine pamoate, reference compound] | No |  |  | water solubility (in words), background [6]: insoluble in water
18 | Olanzapine Mesylate [Monomesylate] | No | No | Yes | 
19 | olanzapine dibesylate [reference compound] |  |  | Yes** | solid state behaviour on storage [4]: become oily after a short period of storage
20 | Olanzapine Hydrogenmaleate | Yes | No | Yes | hydrolysis by water (liberation of olanzapine base in aqueous solution) ([2]; aqueous solution): hydrolysable by water; water solubility (in words) (listed as maleate): good water solubility; water solubility (in words) (listed as olanzapine hydrogenmaleate): soluble in water; stability against the action of light (Stability against light): sufficiently stable against the action of light; hygroscopicity (Hygroscopicity): generally non-hygroscopic
21 | Olanzapine Acetate [Monoacetate] | Yes | No | Yes | 
22 | CC(O)C(=O)O.Cc1cc2c(s1)Nc1ccccc1N=C2N1CCN(C)CC1 [Mono-L-lactate, Olanzapine Lactate] | Yes |  |  | 
23 | Cc1cc2c(s1)Nc1ccccc1N=C2N1CCN(C)CC1.O=C(O)c1ccccc1 [Monobenzoate, Olanzapine Benzoate] | Yes |  |  | stability against the action of light (Stability against light): sufficiently stable against the action of light; hygroscopicity (Hygroscopicity): generally non-hygroscopic
